Earlier results, collected in patent publication US8092782B2, “Polybiotin compounds of magnetic resonance imaging and drug delivery” (priority 2003, dated 2012).

Q: With triacetyl-beta-cyclodextrin as the substance, how does the “solubility in water” value read?
A: insoluble
